Results on one compound are retold here after article PMC4265155, “A highly charged region in the middle domain of plant endoplasmic reticulum (ER)-localized heat-shock protein 90 is required for resistance to tunicamycin or high calcium-induced ER stresses” (Journal of Experimental Botany, 2014).

In the test the target is T1, CfGRP94 (canine GRP94 73–754Δ41) (Canis lupus, UniProt P41148, DEL287-327, form not given).
T1 construct: gene HSP90B1
The note with it: geldanamycin-sensitive activity; 25 mM HEPES pH 7.5, 5 mM MgCl2, 400 mM KCl, 0.03% Tween 20, 10% glycerol. An excerpt: NADH-coupled ATPase assay (pyruvate kinase / lactate dehydrogenase) on CfGRP94 (canine GRP94 73–754Δ41)

SMILES strings stand for the structures.

T1 sequence (P41148 73-286, stated change not applied): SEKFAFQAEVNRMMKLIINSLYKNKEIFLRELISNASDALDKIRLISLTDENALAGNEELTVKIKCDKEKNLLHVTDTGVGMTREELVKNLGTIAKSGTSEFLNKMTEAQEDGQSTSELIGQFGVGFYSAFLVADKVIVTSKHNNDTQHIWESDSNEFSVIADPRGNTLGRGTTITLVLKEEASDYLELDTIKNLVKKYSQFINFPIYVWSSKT
T1 sequence (P41148 328-754, stated change not applied): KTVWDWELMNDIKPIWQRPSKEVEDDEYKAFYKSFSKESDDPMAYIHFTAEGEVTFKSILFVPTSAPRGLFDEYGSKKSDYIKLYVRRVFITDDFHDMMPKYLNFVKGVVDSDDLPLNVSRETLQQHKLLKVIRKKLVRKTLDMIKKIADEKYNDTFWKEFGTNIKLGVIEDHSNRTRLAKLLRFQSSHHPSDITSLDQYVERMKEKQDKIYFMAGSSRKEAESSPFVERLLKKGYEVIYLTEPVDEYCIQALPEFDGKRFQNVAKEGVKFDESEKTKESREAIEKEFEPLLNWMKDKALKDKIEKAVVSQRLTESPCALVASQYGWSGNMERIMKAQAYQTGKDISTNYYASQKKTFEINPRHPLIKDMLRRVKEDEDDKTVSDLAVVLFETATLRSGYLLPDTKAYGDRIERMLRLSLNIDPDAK

With `Nc1ncnc2c1ncn2[C@@H]1O[C@H](COP(=O)(O)OP(=O)(O)OP(=O)(O)O)[C@@H](O)[C@H]1O` [ATP], the Km came out at 65 ± 13 µM.

In general, Km refers to the substrate concentration at which the rate is half of its maximum.
